Measured values published in patent US8481538B2, “Heterocyclic inhibitors of c-Met and uses thereof” (Vertex Pharmaceuticals Incorporated, priority 2006, dated 2013).

Target: c-Met (Homo sapiens, UniProt P08581)
Assay: Ki determination for the inhibition of c-Met (standard radiometric kinase assay)
Assay type: biochemical
Conditions: radiometric 33P-ATP assay, 1.0 nM c-Met, 35 μM ATP, 0.5 mg/mL polyE4Y, competitive tight-binding fit
Experimental: Ki Determination for the Inhibition of c-Met
Compounds of the invention were screened for their ability to inhibit c-Met kinase activity using a standard radiometric assay. Briefly, in this kinase assay the transfer of the terminal ^33P-phosphate in ^33P-ATP to substrate polyE4Y is interrogated. The assay was carried out in 96-well plates to a final volume of 100 μL per well containing 1.0 nM c-Met, 100 mM HEPES (pH 7.5), 10 mM MgCl2, 25 mM NaCl, 0.01% BSA, 1 mM DTT, 0.5 mg/mL polyE4Y, and 35 μM ATP. Accordingly, compounds of the invention were dissolved in DMSO to make 10 mM initial stock solutions. Serial dilutions in DMSO were then made to obtain the final solutions for the assay. A 1.5 μL aliquot of DMSO or inhibitor in DMSO was added to each well. The reaction was initiated by the addition of ^33P-ATP and polyE4Y (obtained from Sigma). After 20 min, the reaction was quenched with 50 μL of 30% trichloroacetic acid (TCA) containing 4 mM ATP. The reaction mixture was transferred to the 0.66 mm GF filter plates (Corning) and washed three times with 5% TCA. Following the addition of 50 μL of Ultimate Gold™ high efficiency scintillant (Packard Bioscience), the samples were counted in a Packard TopCount NXT Microplate Scintillation and Luminescence Counter (Packard BioScience). The Ki values were calculated using Microsoft Excel Solver macros to fit the data to the kinetic model for competitive tight-binding inhibition.

c-Met, sequence (P08581 25-1390): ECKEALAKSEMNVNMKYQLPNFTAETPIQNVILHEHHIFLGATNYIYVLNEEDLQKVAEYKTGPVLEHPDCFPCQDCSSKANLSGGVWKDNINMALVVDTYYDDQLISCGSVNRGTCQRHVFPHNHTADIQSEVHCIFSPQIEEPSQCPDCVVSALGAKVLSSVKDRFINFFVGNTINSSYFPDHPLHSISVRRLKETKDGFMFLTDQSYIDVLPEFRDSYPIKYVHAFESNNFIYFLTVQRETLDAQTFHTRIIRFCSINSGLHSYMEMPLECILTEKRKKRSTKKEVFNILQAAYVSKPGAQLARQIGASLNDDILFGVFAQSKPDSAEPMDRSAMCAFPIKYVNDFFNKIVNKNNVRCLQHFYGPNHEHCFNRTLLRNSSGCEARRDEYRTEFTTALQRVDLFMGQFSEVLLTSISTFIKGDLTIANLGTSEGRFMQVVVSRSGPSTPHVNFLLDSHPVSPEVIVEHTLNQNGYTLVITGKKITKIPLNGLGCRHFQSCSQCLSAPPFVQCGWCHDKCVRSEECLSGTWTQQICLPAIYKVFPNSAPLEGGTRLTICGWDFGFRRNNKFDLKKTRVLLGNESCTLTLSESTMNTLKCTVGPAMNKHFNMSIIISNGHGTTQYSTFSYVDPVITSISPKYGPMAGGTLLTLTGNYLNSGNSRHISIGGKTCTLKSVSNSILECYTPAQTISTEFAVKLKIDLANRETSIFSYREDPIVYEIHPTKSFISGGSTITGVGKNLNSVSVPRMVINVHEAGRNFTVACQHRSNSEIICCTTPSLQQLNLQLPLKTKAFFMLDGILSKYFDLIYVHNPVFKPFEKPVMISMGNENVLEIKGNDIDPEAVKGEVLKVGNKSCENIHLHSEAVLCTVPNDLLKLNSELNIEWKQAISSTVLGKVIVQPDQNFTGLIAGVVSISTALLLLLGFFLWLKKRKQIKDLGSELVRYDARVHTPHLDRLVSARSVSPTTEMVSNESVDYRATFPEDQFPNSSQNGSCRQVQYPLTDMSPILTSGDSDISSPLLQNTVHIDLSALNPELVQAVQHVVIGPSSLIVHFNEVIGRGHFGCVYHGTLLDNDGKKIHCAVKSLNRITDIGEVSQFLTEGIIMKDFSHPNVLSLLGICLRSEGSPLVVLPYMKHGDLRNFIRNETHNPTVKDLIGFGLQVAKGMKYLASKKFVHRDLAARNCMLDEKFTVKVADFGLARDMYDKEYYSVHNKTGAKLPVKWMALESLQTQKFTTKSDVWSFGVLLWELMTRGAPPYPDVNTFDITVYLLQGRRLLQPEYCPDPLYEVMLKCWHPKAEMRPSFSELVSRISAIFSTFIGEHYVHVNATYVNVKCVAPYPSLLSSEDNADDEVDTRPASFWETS

Compound	Ki [nM]
Clc1cccc(Nc2ccc3nnc(COCc4cccnc4)n3n2)c1 [Compound 2, 3-(((pyridin-3-yl)methoxy)methyl)-N-(3-chlorophenyl)-[1,2,4]triazolo[4,3-b]pyridazin-6-amine]	≤ 250
Clc1cccc(Nc2ccc3nnc(CNCc4ccccn4)n3n2)c1 [Compound 3]	> 2500
CN(C(=O)Cc1nnc2ccc(Nc3cccc(Cl)c3)nn12)c1ccccn1 [Compound 7]	> 2500
C[C@@H](NC(=O)c1cccnc1)c1nnc2ccc(Nc3cccc(Cl)c3)nn12 [Compound 10]	> 2500
C[C@@H](NC(=O)c1nccnc1N)c1nnc2ccc(Nc3cccc(Cl)c3)nn12 [Compound 14, N—((R)-1-(6-(3-chlorophenylamino)-[1,2,4]triazolo[4,3-b]pyridazin-3-yl)ethyl)-3-aminopyrazine-2-carboxamide]	≤ 250
C[C@@H](NC(=O)Nc1cccnc1)c1nnc2ccc(Nc3cccc(Cl)c3)nn12 [Compound 15, 1-((R)-1-(6-(3-chlorophenylamino)-[1,2,4]triazolo[4,3-b]pyridazin-3-yl)ethyl)-3-(pyridin-3-yl)urea]	250 to 2500
C[C@@H](NC(=O)c1nc(Br)cnc1N)c1nnc2ccc(Nc3cccc(Cl)c3)nn12 [Compound 18]	250 to 2500
Clc1cccc(Nc2ccc3nnc(COCc4cnccn4)n3n2)c1 [Compound 19]	> 2500
C[C@@H](NC(=O)c1nc(-c2ccccc2)cnc1N)c1nnc2ccc(Nc3cccc(Cl)c3)nn12 [Compound 21]	≤ 250
CC(=O)Nc1ccc(-c2cnc(N)c(C(=O)N[C@H](C)c3nnc4ccc(Nc5cccc(Cl)c5)nn34)c2)cc1 [Compound 24]	≤ 250
C[C@@H](NC(=O)c1nc(-c2cnn(C)c2)cnc1N)c1nnc2ccc(Nc3cccc(Cl)c3)nn12 [Compound 27]	≤ 250
C[C@H](NC(=O)c1nc(-c2ccccc2)cnc1N)c1nnc2ccc(Nc3cccc(Cl)c3)nn12 [Compound 28]	250 to 2500
Nc1ncc(-c2ccccc2)nc1C(=O)N[C@H](CO)c1nnc2ccc(Nc3cccc(Cl)c3)nn12 [Compound 30]	≤ 250
CC[C@@H](NC(=O)c1nc(-c2ccccc2)cnc1N)c1nnc2ccc(Nc3cccc(Cl)c3)nn12 [Compound 34]	250 to 2500
C#Cc1cnc(N)c(C(=O)N[C@H](C)c2nnc3ccc(Nc4cccc(Cl)c4)nn23)n1 [Compound 36]	≤ 250
C=Cc1cnc(N)c(C(=O)N[C@H](C)c2nnc3ccc(Nc4cccc(Cl)c4)nn23)n1 [Compound 37]	≤ 250
C[C@@H](NC(=O)c1nc(C#N)cnc1N)c1nnc2ccc(Nc3cccc(Cl)c3)nn12 [Compound 38]	≤ 250
C[C@@H](NC(=O)c1nc(C2CCCC2)cnc1N)c1nnc2ccc(Nc3cccc(Cl)c3)nn12 [Compound 40]	≤ 250
C[C@@H](NC(=O)c1nc(C#CCO)cnc1N)c1nnc2ccc(Nc3cccc(Cl)c3)nn12 [Compound 43]	≤ 250
C[C@@H](NC(=O)c1nc(C#CC2(O)CCCC2)cnc1N)c1nnc2ccc(Nc3cccc(Cl)c3)nn12 [Compound 45]	250 to 2500
CCC(O)C#Cc1cnc(N)c(C(=O)N[C@H](C)c2nnc3ccc(Nc4cccc(Cl)c4)nn23)n1 (stereo partly shown) [Compound 46]	≤ 250
C[C@@H](NC(=O)c1nc(C#CCC2CCCC2)cnc1N)c1nnc2ccc(Nc3cccc(Cl)c3)nn12 [Compound 49]	250 to 2500
C[C@@H](NC(=O)c1nc(C#CC(C)(C)C)cnc1N)c1nnc2ccc(Nc3cccc(Cl)c3)nn12 [Compound 51]	250 to 2500
Cc1n[nH]c(C)c1-c1cnc(N)c(C(=O)N[C@H](C)c2nnc3ccc(Nc4cccc(Cl)c4)nn23)n1 [Compound 54]	≤ 250
C[C@@H](NC(=O)c1nc(C#Cc2cccnc2)cnc1N)c1nnc2ccc(Nc3cccc(Cl)c3)nn12 [Compound 56]	250 to 2500
C[C@@H](NC(=O)c1nc(C#Cc2ccncc2)cnc1N)c1nnc2ccc(Nc3cccc(Cl)c3)nn12 [Compound 57]	250 to 2500
C[C@@H](NC(=O)c1cc(-c2cnn(C)c2)cnc1N)c1nnc2sc(Nc3cccc(Cl)c3)nn12 [Compound 63]	250 to 2500
C[C@@H](NC(=O)c1nc(-c2ccc(CN3CC[C@H](O)C3)cc2)cnc1N)c1nnc2ccc(Nc3cccc(Cl)c3)nn12 [Compound 67]	≤ 250

The remaining lines, values ahead:

Ki [nM]	Compound
≤ 250	CN(Cc1cccnc1)Cc1nnc2ccc(Nc3cccc(Cl)c3)nn12 [Compound 1]
> 2500	Clc1cccc(Nc2ccc3nnc(CNCc4cccnc4)n3n2)c1 [Compound 4]
> 2500	O=C(Cc1nnc2ccc(Nc3cccc(Cl)c3)nn12)Nc1cnccn1 [Compound 5]
> 2500	O=C(Cc1nnc2ccc(Nc3cccc(Cl)c3)nn12)NCc1cccnc1 [Compound 6]
250 to 2500	Nc1cccnc1NC(=O)Cc1nnc2ccc(Nc3cccc(Cl)c3)nn12 [Compound 8]
250 to 2500	CN(Cc1cccnc1N)Cc1nnc2ccc(Nc3cccc(Cl)c3)nn12 [Compound 11, N-(3-chlorophenyl)-3-(2-(N-((2-aminopyridin-3-yl)methyl)-N-(methyl)amino)methyl)-[1,2,4]triazolo[4,3-b]pyridazin-6-amine]
> 2500	CN(Cc1nnc2ccc(Nc3cccc(Cl)c3)nn12)C(=O)c1cccnc1 [Compound 12]
250 to 2500	C[C@@H](NC(=O)c1cccnc1N)c1nnc2ccc(Nc3cccc(Cl)c3)nn12 [Compound 13]
250 to 2500	C[C@@H](NC(=O)c1cnc2ccccc2n1)c1nnc2ccc(Nc3cccc(Cl)c3)nn12 [Compound 16]
250 to 2500	C[C@@H](NC(=O)c1cc(Br)cnc1N)c1nnc2ccc(Nc3cccc(Cl)c3)nn12 [Compound 17]
≤ 250	Clc1cccc(Nc2ccc3nnc(CNc4n[nH]c5ncccc45)n3n2)c1 [Compound 20]
≤ 250	CC(=O)Nc1ccc(-c2cnc(N)c(C(=O)N[C@H](C)c3nnc4ccc(Nc5cccc(Cl)c5)nn34)n2)cc1 [Compound 22]
≤ 250	C[C@@H](NC(=O)c1cc(-c2ccccc2)cnc1N)c1nnc2ccc(Nc3cccc(Cl)c3)nn12 [Compound 23]
250 to 2500	CCC(C)Nc1ccc2nnc([C@@H](C)NC(=O)c3nc(-c4ccccc4)cnc3N)n2n1 (stereo partly shown) [Compound 25]
250 to 2500	CCC(C)Nc1ccc2nnc([C@@H](C)NC(=O)c3nc(-c4ccc(NC(C)=O)cc4)cnc3N)n2n1 (stereo partly shown) [Compound 26]
≤ 250	C[C@@H](NC(=O)c1nc(-c2cccs2)cnc1N)c1nnc2ccc(Nc3cccc(Cl)c3)nn12 [Compound 29]
≤ 250	C[C@@H](NC(=O)c1nc(-c2ccsc2)cnc1N)c1nnc2ccc(Nc3cccc(Cl)c3)nn12 [Compound 31]
≤ 250	C[C@@H](NC(=O)c1nc(-c2ccoc2)cnc1N)c1nnc2ccc(Nc3cccc(Cl)c3)nn12 [Compound 32]

Ki [nM]	Compound
≤ 250	C[C@@H](NC(=O)c1nc(C2=CCCC2)cnc1N)c1nnc2ccc(Nc3cccc(Cl)c3)nn12 [Compound 33]
> 2500	CC(C)[C@@H](NC(=O)c1nc(-c2ccccc2)cnc1N)c1nnc2ccc(Nc3cccc(Cl)c3)nn12 [Compound 35]
≤ 250	C[C@@H](NC(=O)c1nc(C(N)=O)cnc1N)c1nnc2ccc(Nc3cccc(Cl)c3)nn12 [Compound 39]
≤ 250	C[C@@H](NC(=O)c1nc(-c2cccnc2)cnc1N)c1nnc2ccc(Nc3cccc(Cl)c3)nn12 [Compound 41]
≤ 250	C[C@@H](NC(=O)c1nc(-c2ccncc2)cnc1N)c1nnc2ccc(Nc3cccc(Cl)c3)nn12 [Compound 42]
≤ 250	C[C@@H](NC(=O)c1nc(C#CCCO)cnc1N)c1nnc2ccc(Nc3cccc(Cl)c3)nn12 [Compound 44]
≤ 250	CCN(CC)CC#Cc1cnc(N)c(C(=O)N[C@H](C)c2nnc3ccc(Nc4cccc(Cl)c4)nn23)n1 [Compound 47]
250 to 2500	C[C@@H](NC(=O)c1nc(C#Cc2ccccc2)cnc1N)c1nnc2ccc(Nc3cccc(Cl)c3)nn12 [Compound 48]
250 to 2500	CCCC#Cc1cnc(N)c(C(=O)N[C@H](C)c2nnc3ccc(Nc4cccc(Cl)c4)nn23)n1 [Compound 50]
250 to 2500	CCc1cnc(N)c(C(=O)N[C@H](C)c2nnc3ccc(Nc4cccc(Cl)c4)nn23)n1 [Compound 52]
250 to 2500	C[C@@H](NC(=O)c1nc(C#Cc2ccccn2)cnc1N)c1nnc2ccc(Nc3cccc(Cl)c3)nn12 [Compound 53]
≤ 250	C[C@@H](NC(=O)c1nc(-c2ccc(CN3CCCC3)cc2)cnc1N)c1nnc2ccc(Nc3cccc(Cl)c3)nn12 [Compound 55]
≤ 250	CC(=O)Nc1cccc(-c2cnc(N)c(C(=O)N[C@H](C)c3nnc4ccc(Nc5cccc(Cl)c5)nn34)n2)c1 [Compound 58]
250 to 2500	C[C@@H](NC(=O)c1nc(C#CC2CC2)cnc1N)c1nnc2ccc(Nc3cccc(Cl)c3)nn12 [Compound 61]
≤ 250	C[C@@H](NC(=O)c1nc(-c2cnn(C3CCNCC3)c2)cnc1N)c1nnc2ccc(Nc3cccc(Cl)c3)nn12 [Compound 62]
250 to 2500	C[C@@H](NC(=O)c1nc(-c2ccccc2)cnc1N)c1nnc2ccc(Cl)nn12 [Compound 64]
≤ 250	C[C@@H](NC(=O)c1nc(-c2ccc(CN)cc2)cnc1N)c1nnc2ccc(Nc3cccc(Cl)c3)nn12 [Compound 65]
≤ 250	C[C@@H](NC(=O)c1nc(-c2ccc(CN3CC[C@@H](O)C3)cc2)cnc1N)c1nnc2ccc(Nc3cccc(Cl)c3)nn12 [Compound 66]
